# Where “and” joins values, the source holds several entries; their conditions need not be identical. Equal entries are not always repeated.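 A five-concentration, 48-hour dose response in 96-well plates underlies each endpoint, interpolated linearly between surrounding concentrations. Abbreviation: GI50, concentration required for 50% inhibition of growth. TGI: total growth inhibition.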
# Key:
# Assay in all cases: NCI-60 cell line screen, 48 h
# [1] = system: DMS 273 small cell lung
# [2] = system: HCT-116 colon
# [3] = system: KM20L2 colon
# [4] = system: LOX IMVI melanoma
# [5] = system: OVCAR-4 ovarian
# [6] = system: OVCAR-8 ovarian
# [7] = system: PC-3 prostate
# [8] = system: SW-620 colon
# [9] = system: U251 CNS
# [10] = system: UACC-257 melanoma
Structure (SMILES),TGI [1] [µM],TGI [2] [µM],TGI [3] [µM],TGI [4] [µM],TGI [5] [µM],TGI [6],TGI [7] [µM],TGI [8],TGI [9] [µM],TGI [10] [µM],GI50 [2] [µM],GI50 [4] [µM],GI50 [5] [µM],GI50 [6] [µM],GI50 [8] [µM],GI50 [9] [µM],GI50 [10] [µM],GI50 [1] [µM],GI50 [3] [µM]
COc1cc2c(c(OC)c1OC)-c1ccc(SC)c(=O)cc1[C@@H](NC(=O)C(F)(F)F)CC2,> 100,4.42,< 0.0115,> 87.3,> 100,> 72.6 µM,> 100,> 100 µM,56.3,> 4.64,–,–,–,–,–,–,–,–,–
O=C1NC2(CCCCC2)C(=O)N1CCN(CCCl)CCCl,> 223,> 250,> 194,> 250,> 250,> 25 µM and 173 µM,> 25,> 25 µM and 150 µM,> 250,> 250,> 25,> 25,> 25,> 25,> 25,> 25,> 25,–,–
C/C=C/C(=O)[O-].C/C=C/C(=O)[O-].N.N.N.N.[Co+3].[O-][Cl+3]([O-])([O-])[O-],> 100,> 100,> 100,> 100,> 100,> 100 µM,–,> 100 µM,> 100,> 100,> 100,> 100,> 100,> 100,> 100,> 100,> 100,> 100,> 100
C[N+](C)(C)c1cc[c]([Sn]([c]2ccc([N+](C)(C)C)cc2)([c]2ccc([N+](C)(C)C)cc2)[c]2ccc([N+](C)(C)C)cc2)cc1,> 100,> 100,> 100,> 100,> 100,> 100 µM,–,> 100 µM,> 100,> 100,> 100,> 100,> 100,> 100,> 100,> 100,> 100,> 100,> 100
CCOC(=N)CC(=O)Nc1ccccc1,> 46.4,> 46.4,> 100,> 71.4,> 46.4,> 21.5 µM,–,> 67.6 µM,> 100,> 46.4,–,–,–,–,–,–,–,–,–
Cc1ccc(N=C2N=C(N3CC(C)OC(C)C3)c3ccccc32)cc1 (stereo not drawn),77.1,48.8,> 100,> 100,52.1,> 100 µM,–,> 100 µM,> 100,74.6,–,–,–,–,–,–,–,–,–
O=C(N=c1nc(NC(=O)c2ccccc2)ss1)c1ccccc1,89.1,> 100,> 100,> 100,> 100,82.8 µM,–,> 100 µM,37.1,48.1,–,–,–,–,–,–,–,–,–
O=C(Nc1ccc(Cl)cc1C(=O)O)c1ccc([N+](=O)[O-])cc1,67.1,36.9,48.3,37.6,47.1,> 100 µM,–,> 100 µM,51.1,48,–,–,–,–,–,–,–,–,–
COc1ccc(O)cc1C(O)c1ccccc1 (stereo not drawn),> 100,> 100,> 100,> 100,> 100,> 100 µM,–,> 100 µM,> 100,> 100,–,–,–,–,–,–,–,–,–

# Source: PubChem BioAssay (NCI)
